Consider seven compounds from PubChem BioAssay (NCI).

Some test systems named below: T-47D breast; SK-MEL-5 melanoma; DU-145 prostate; HOP-92 NSCLC; RPMI-8226 leukemia; SNB-19 CNS; NCI-H226 lung; MDA-MB-435; OVCAR-8 ovarian; UACC-257 melanoma; HCT-116 colon; HS 578T breast; BT-549 breast; MCF7 breast; SK-OV-3 ovarian; HCT-15 colon; IGROV1 ovarian; MDA-N; MALME-3M melanoma; HOP-62 NSCLC.
Assay in all cases: inhibition of tumour cell growth, NCI panel, 48 h

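Five compound concentrations were applied to cells in 96-well plates for 48 hours; endpoints were derived by simple linear interpolation of the resulting dose-response curve. TGI is the concentration that stops growth completely.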 Bounds are passed on as bounds.

In the case of `CC(C)(C)C1(O)C=C(O)C(=O)N1NC(=O)c1ccccc1Nc1ccccc1` (stereo not drawn), the TGI in the assay on T-47D breast, with SK-MEL-5 melanoma, with DU-145 prostate, in the assay with HOP-92 NSCLC, with RPMI-8226 leukemia and with SNB-19 CNS was greater than 100 µM each time. In addition, the TGI in the assay with NCI-H226 lung is greater than 100 µM; with MDA-MB-435 it was greater than 100 µM; in the assay on OVCAR-8 ovarian, greater than 100 µM; in the assay with UACC-257 melanoma it was 72.2 µM; in the assay on HCT-116 colon, greater than 100 µM; in the assay on HS 578T breast, greater than 100 µM. Also, the TGI with BT-549 breast, in the assay with MCF7 breast, in the assay on SK-OV-3 ovarian, with HCT-15 colon, with IGROV1 ovarian and in the assay with MDA-N was greater than 100 µM in each case. Also, the TGI in the assay with MALME-3M melanoma is greater than 100 µM.

For `COc1ccc2oc(=O)c(-c3nc4ccccc4o3)cc2c1`, the TGI in the assay with HOP-62 NSCLC, in the assay on T-47D breast, in the assay with SK-MEL-5 melanoma, in the assay with DU-145 prostate, with HOP-92 NSCLC and in the assay on RPMI-8226 leukemia was greater than 100 µM throughout. Also, the TGI in the assay on SNB-19 CNS, with NCI-H226 lung, in the assay with MDA-MB-435, in the assay on OVCAR-8 ovarian, with UACC-257 melanoma and with HCT-116 colon was greater than 100 µM in each case. Also, the TGI in the assay on HS 578T breast, with BT-549 breast, in the assay on MCF7 breast, in the assay on SK-OV-3 ovarian, in the assay on HCT-15 colon and with IGROV1 ovarian was greater than 100 µM each time. The TGI in the assay on MDA-N and in the assay with MALME-3M melanoma was greater than 100 µM each time.

For `CC[C@@H]1CC[C@@H]2[C@H](CC[C@]3(C)[C@@H](O)CC[C@@H]23)[C@H]1CO`, the TGI in the assay with HOP-62 NSCLC, in the assay with T-47D breast, with SK-MEL-5 melanoma, with DU-145 prostate, in the assay with HOP-92 NSCLC and in the assay on RPMI-8226 leukemia was greater than 100 µM throughout. Besides, the TGI with SNB-19 CNS, with NCI-H226 lung, in the assay on MDA-MB-435, in the assay on OVCAR-8 ovarian, in the assay on UACC-257 melanoma and in the assay on HCT-116 colon was greater than 100 µM throughout. Besides, the TGI with HS 578T breast, in the assay on BT-549 breast, in the assay on MCF7 breast, in the assay on SK-OV-3 ovarian, in the assay with HCT-15 colon and in the assay on IGROV1 ovarian was greater than 100 µM throughout. Moreover, the TGI with MDA-N and in the assay on MALME-3M melanoma was greater than 100 µM throughout.

As for `CCOC(=O)c1[nH]cc(C)c1-c1c[nH]c2ccccc12`, the TGI in the assay on HOP-62 NSCLC is greater than 100 µM; in the assay with T-47D breast, greater than 100 µM; in the assay with SK-MEL-5 melanoma it was 34.5 µM; in the assay with DU-145 prostate, greater than 100 µM; in the assay with HOP-92 NSCLC, greater than 74.4 µM; in the assay with RPMI-8226 leukemia it was 41.9 µM. For the same compound, the TGI was greater than 100 µM in the assay with SNB-19 CNS; 67.6 µM in the assay with NCI-H226 lung; greater than 100 µM in the assay on MDA-MB-435; greater than 100 µM with OVCAR-8 ovarian; greater than 100 µM in the assay on UACC-257 melanoma; greater than 53.2 µM in the assay with HCT-116 colon. Moreover, the TGI in the assay on HS 578T breast was 61.7 µM; in the assay with BT-549 breast, 93.8 µM; with MCF7 breast, greater than 60.8 µM; in the assay on SK-OV-3 ovarian, greater than 100 µM; in the assay with HCT-15 colon, greater than 100 µM; with IGROV1 ovarian it was greater than 100 µM. The TGI in the assay on MDA-N was greater than 83.8 µM; with MALME-3M melanoma, greater than 100 µM.

As to `COc1cc(C2S/C(=C/c3ccccc3)C(=O)N2c2cc(Cl)c(Cl)cc2Cl)cc(OC)c1OC` (stereo not drawn), the TGI was greater than 100 µM with HOP-62 NSCLC; greater than 100 µM in the assay with T-47D breast; greater than 100 µM in the assay with SK-MEL-5 melanoma; greater than 100 µM in the assay with DU-145 prostate; greater than 74.6 µM in the assay on HOP-92 NSCLC; greater than 62.4 µM in the assay on RPMI-8226 leukemia. Moreover, the TGI in the assay on SNB-19 CNS is greater than 100 µM; in the assay on NCI-H226 lung, greater than 100 µM; with MDA-MB-435 it was greater than 100 µM; in the assay on OVCAR-8 ovarian, greater than 100 µM; with UACC-257 melanoma it was greater than 100 µM; in the assay on HCT-116 colon, greater than 75 µM. Besides, the TGI was greater than 57 µM with HS 578T breast; greater than 74.4 µM with BT-549 breast; greater than 100 µM with MCF7 breast; greater than 100 µM in the assay on SK-OV-3 ovarian; greater than 100 µM in the assay with HCT-15 colon; greater than 100 µM in the assay with IGROV1 ovarian. For the same compound, the TGI in the assay on MDA-N was greater than 100 µM; with MALME-3M melanoma, greater than 84.4 µM.

On to `CN(C)C(=S)N/N=C(\C(=N/NC(=S)N(C)C)c1ccccn1)c1ccccn1`, for which the TGI with HOP-62 NSCLC is 38.7 µM; in the assay on T-47D breast, 8.79 µM; in the assay on SK-MEL-5 melanoma, 24.5 µM; in the assay with DU-145 prostate, 10.8 µM; in the assay with HOP-92 NSCLC it was 22.1 µM; in the assay with RPMI-8226 leukemia it was greater than 100 µM. The TGI with SNB-19 CNS was 31.8 µM; with NCI-H226 lung, 28.2 µM; with MDA-MB-435 it was 26 µM; in the assay on OVCAR-8 ovarian, 77.7 µM; with UACC-257 melanoma, 50 µM; with HCT-116 colon, 25.1 µM. Also, the TGI in the assay with HS 578T breast was greater than 46 µM; with BT-549 breast it was 35.5 µM; in the assay on MCF7 breast, greater than 48.7 µM; with SK-OV-3 ovarian it was 30.4 µM; with HCT-15 colon it was 31.6 µM; in the assay on IGROV1 ovarian, 27.1 µM. Further, the TGI in the assay with MDA-N is greater than 54 µM; in the assay on MALME-3M melanoma it was 33.9 µM.

Take `C=C(C)[C@H]1C[C@@H]2O[C@@](O)(/C(C)=C\C(=O)/C=C(/C)C[C@H]3OC(=O)[C@@]24O[C@H]34)[C@@H]1O`: the TGI in the assay with T-47D breast, in the assay with SK-MEL-5 melanoma, with DU-145 prostate, with HOP-92 NSCLC, in the assay on RPMI-8226 leukemia and in the assay on SNB-19 CNS was greater than 100 µM each time. Further, the TGI with NCI-H226 lung, with MDA-MB-435, in the assay with OVCAR-8 ovarian, in the assay with UACC-257 melanoma, in the assay with HCT-116 colon and in the assay with HS 578T breast was greater than 100 µM in each case. In addition, the TGI in the assay on BT-549 breast, in the assay with MCF7 breast, with SK-OV-3 ovarian, with HCT-15 colon, in the assay with IGROV1 ovarian and in the assay with MDA-N was greater than 100 µM each time. In the assay on MALME-3M melanoma, the TGI was greater than 100 µM.
